Test results as given in patent publication US20100151039A1, “SKIN MOISTURIZING AGENT FOR ORAL INTAKE AND FUNCTIONAL FOODS AND DRINKS” (CALPIS CO., LTD., priority 2003, published 2010).

How the values were obtained:
[1] = test system: serine palmitoyl transferase (SPT) mRNA; test: Ability to promote synthesis of SPT: RT-PCR of SPT mRNA in normal human epidermic cells; conditions: 0.63 v/v % in medium, 24 hours; relative value, control = 100, standardized to cyclophilin mRNA
Procedure: (§1) A 35 mm culture dish was seeded with the epidermic cells at a cell concentration of 5×10^5 cells per dish, and subjected to culture for 24 hours.
(§2) (2) After the culture, the cells were washed with PBS (−), and lysed with 500 μl, per dish of TRIzol reagent (trade name, manufactured by Gibco BRL). 100 μL per dish of chloroform was added and mixed thoroughly. The supernatant aqueous phase was recovered by centrifugation, and RNAs were precipitated with 2-propanol to obtain the total RNAs. The obtained total RNAs were washed with 75% cold ethanol, and dissolved in diethyl pyrocarbonate (DEPC)-treated water.
(§3) (3) 1 μg of the RNAs dissolved in DEPC-treated water was subjected to RT-PCR using One step RT-PCR kit (trade name, manufactured by Qiagen) in accordance with its protocol under the conditions and with the primers shown in Table 2, to reverse transcript and amplify the cDNA corresponding to serine palmitoyl transferase (SPT) mRNA, filaggrin mRNA, or cyclophilin RNA.
(§4) (4) After the reaction, the reaction product was fractionated by 1% agarose gel electrophoresis. The electrophoresis gel was stained with ethidium bromide, and photographed under UV irradiation on a transilluminator, to determine the band intensity.
The test was conducted twice.

filaggrin mRNA = test: Ability to promote synthesis of filaggrin: RT-PCR of filaggrin mRNA in normal human epidermic cells; conditions: 0.63 v/v % in medium, 24 hours; relative value, control = 100, standardized to cyclophilin mRNA
Procedure: as §1, §2, §3, §4
The test was conducted twice.

## CC(O)C(=O)O (stereo not shown) [lactic acid]
[1]
  Effect on expression of SPT mRNA of normal human epidermic cells, 1st Test: 91
  Effect on expression of SPT mRNA of normal human epidermic cells, 2nd Test: 111
Filaggrin mRNA
  Effect on expression of filaggrin mRNA of normal epidermic cells, 1st Test: 15
  Effect on expression of filaggrin mRNA of normal epidermic cells, 2nd Test: 132
